How the values were obtained:
Format in all cases: in vivo, human
[1] = test system: Healthy subjects, ages 13-18; assay: Trail Making Test; parameters: Trail Making B V1 (Mean) / Trail Making B V3 (Mean) / Trail Making B-A V1 (Mean) / Trail Making B-A V3 (Mean) / V3-V1 Trail Making B (Mean) / V3-V1 Trail Making B-A (Mean): unit not given here; settings: for Trail Making A V1 (Mean) / Trail Making B V1 (Mean) / Trail Making B-A V1 (Mean): Visit 1; for Trail Making A V3 (Mean) / Trail Making B V3 (Mean) / Trail Making B-A V3 (Mean): Visit 3; for V3-V1 Trail Making A (Mean) / V3-V1 Trail Making B (Mean) / V3-V1 Trail Making B-A (Mean): visit difference score V3-V1
Source text: Study participants were screened by telephone prior to study enrollment. Healthy subjects, ages 13-18, with no significant medical conditions and no history of co-morbid psychiatric disorder, current Axis I or II diagnosis, or previous participation in a pharmacotherapeutic trial, were selected. Use of any psychotropic medication or any previous head injury resulting in loss of consciousness for 5 or more minutes were used as exclusion criteria. While no participant met criteria for a neuropsychiatric disorder at enrollment, clinical assessments were still completed throughout the study to evaluate changes in mood state. In addition, self-reports of sleep habits, lifestyle, and exercise routines were also administered at baseline as well as at each study visit to assess changes in health habits during study participation.
Following the completion of Visit 1 assessment, participants were given their 28-day supply of citicoline (250 mg or 500 mg) or placebo, which was randomly assigned. They were instructed to take one capsule a day every day for the next 28 days.
Visit 2 occurred fourteen days after Visit 1. At Visit 2, the remaining study pills were counted and participant dosage calendars were checked to ensure compliance with the protocol. Additional neuropsychological measures and clinical assessments were administered during this visit.
Participants returned for Visit 3 fourteen days later, on the 28th day of their study participation. The pill bottle and the dosage calendar were collected from each participant. Urine and blood were again obtained. Participants also participated in similar clinical and neuropsychological testing and clinical measures that were given during visit 1.
The Trail Making Test is designed to measure visual conceptual and visuomotor tracking, as well as maintenance of cognitive set. On Trial A the participant must draw lines to connect consecutively numbered circles on one work sheet (1-2-3-4 etc.). For Part B they must connect numbered and lettered circles by alternating between the two sequences (i.e., 1-A-2-B etc.). Part B is the more sensitive of the two tests -- particularly to frontal-lobe dysfunction -- as scores on this section are indicative of the participant’s ability to shift sets (numeric to alphabetical order) and process concurrent stimuli. This test was administered on all three visits.

[2] = test system: Healthy subjects, ages 13-18; assay: Wisconsin Card Sorting Task (WCST); settings: Visit 3
Source text: Study participants were screened by telephone prior to study enrollment. Healthy subjects, ages 13-18, with no significant medical conditions and no history of co-morbid psychiatric disorder, current Axis I or II diagnosis, or previous participation in a pharmacotherapeutic trial, were selected. Use of any psychotropic medication or any previous head injury resulting in loss of consciousness for 5 or more minutes were used as exclusion criteria. While no participant met criteria for a neuropsychiatric disorder at enrollment, clinical assessments were still completed throughout the study to evaluate changes in mood state. In addition, self-reports of sleep habits, lifestyle, and exercise routines were also administered at baseline as well as at each study visit to assess changes in health habits during study participation. Following the completion of Visit 1 assessment, participants were given their 28-day supply of citicoline (250 mg or 500 mg) or placebo, which was randomly assigned. They were instructed to take one capsule a day every day for the next 28 days. Visit 2 occurred fourteen days after Visit 1. At Visit 2, the remaining study pills were counted and participant dosage calendars were checked to ensure compliance with the protocol. Additional neuropsychological measures and clinical assessments were administered during this visit. Participants returned for Visit 3 fourteen days later, on the 28th day of their study participation. The pill bottle and the dosage calendar were collected from each participant. Urine and blood were again obtained. Participants also participated in similar clinical and neuropsychological testing and clinical measures that were given during visit 1. The WCST assess a person’s ability to form abstract concepts, utilize feedback, and to shift and maintain set. […] The WCST involves 4 stimulus cards that vary in color, geometric form, and number. Without knowing the criterion, participants are asked to match cards from a deck to the stimulus cards. After the participant places each card, they are told whether they are correct or incorrect and should change the element they are matching based on this feedback. […] The WCST was given on the third visit of the study.

[3] = test system: Healthy subjects, ages 13-18; assay: Children's Depression Rating Scale (CDRS); settings: for CDRS Score, Mean: V3-V1
Source text: Study participants were screened by telephone prior to study enrollment. Healthy subjects, ages 13-18, with no significant medical conditions and no history of co-morbid psychiatric disorder, current Axis I or II diagnosis, or previous participation in a pharmacotherapeutic trial, were selected. Use of any psychotropic medication or any previous head injury resulting in loss of consciousness for 5 or more minutes were used as exclusion criteria. While no participant met criteria for a neuropsychiatric disorder at enrollment, clinical assessments were still completed throughout the study to evaluate changes in mood state. In addition, self-reports of sleep habits, lifestyle, and exercise routines were also administered at baseline as well as at each study visit to assess changes in health habits during study participation. Following the completion of Visit 1 assessment, participants were given their 28-day supply of citicoline (250 mg or 500 mg) or placebo, which was randomly assigned. They were instructed to take one capsule a day every day for the next 28 days. Visit 2 occurred fourteen days after Visit 1. At Visit 2, the remaining study pills were counted and participant dosage calendars were checked to ensure compliance with the protocol. Additional neuropsychological measures and clinical assessments were administered during this visit. Participants returned for Visit 3 fourteen days later, on the 28th day of their study participation. The pill bottle and the dosage calendar were collected from each participant. Urine and blood were again obtained. Participants also participated in similar clinical and neuropsychological testing and clinical measures that were given during visit 1. The CDRS is an investigator-administered scale that are widely used as observational measures of depressive symptoms in children. The scale was administered at each of the three visits to assess presence or absence of depressive symptoms.

C[N+](C)(C)CCOP(=O)(O)OP(=O)([O-])OC[C@H]1O[C@@H](n2ccc(N)nc2=O)[C@H](O)[C@@H]1O [citicoline, Cytidine 5′-diphosphocholine]
Trail Making A V1 (Mean) ([1]; 250 mg/day group): 11.16
Trail Making B V1 (Mean) ([1]; 250 mg/day group): 29.15
Trail Making B-A V1 (Mean) ([1]; 250 mg/day group): 17.99
Trail Making A V3 (Mean) ([1]; 250 mg/day group): 9.37
Trail Making B V3 (Mean) ([1]; 250 mg/day group): 18.40
Trail Making B-A V3 (Mean) ([1]; 250 mg/day group): 9.00
V3-V1 Trail Making A (Mean) ([1]; 250 mg/day group): -1.80
V3-V1 Trail Making B (Mean) ([1]; 250 mg/day group): -10.75
V3-V1 Trail Making B-A (Mean) ([1]; 250 mg/day group): -8.99
Trail Making A V1 (Mean) ([1]; 500 mg/day group): 12.89
Trail Making B V1 (Mean) ([1]; 500 mg/day group): 28.60
Trail Making B-A V1 (Mean) ([1]; 500 mg/day group): 15.71
Trail Making A V3 (Mean) ([1]; 500 mg/day group): 9.28
Trail Making B V3 (Mean) ([1]; 500 mg/day group): 23.02
Trail Making B-A V3 (Mean) ([1]; 500 mg/day group): 13.73
V3-V1 Trail Making A (Mean) ([1]; 500 mg/day group): -3.60
V3-V1 Trail Making B (Mean) ([1]; 500 mg/day group): -5.58
V3-V1 Trail Making B-A (Mean) ([1]; 500 mg/day group): -1.98
WCST V3 Number of Categories Achieved (Mean) ([2]; 250 mg/day group): 5.69
WCST V3 Number of Trials to Complete Category (Mean) ([2]; 250 mg/day group): 71.15
WCST V3 Number of Trials to Get into Category (Mean) ([2]; 250 mg/day group): 15.19
WCST V3 Total Cards Used (Mean) ([2]; 250 mg/day group): 90.88
WCST V3 Total Errors (Mean) ([2]; 250 mg/day group): 19.73
WCST V3 Total Perseverative Errors (Mean) ([2]; 250 mg/day group): 8.54
WCST V3 Number of Categories Achieved (Mean) ([2]; 500 mg/day group): 5.87
WCST V3 Number of Trials to Complete Category (Mean) ([2]; 500 mg/day group): 70.57
WCST V3 Number of Trials to Get into Category (Mean) ([2]; 500 mg/day group): 13.78
WCST V3 Total Cards Used (Mean) ([2]; 500 mg/day group): 89.57
WCST V3 Total Errors (Mean) ([2]; 500 mg/day group): 19.00
WCST V3 Total Perseverative Errors (Mean) ([2]; 500 mg/day group): 9.13
CDRS, Mean ([3]; 250 mg/day, V1 (baseline)): 16.89
CDRS, Mean ([3]; 250 mg/day, V3 (day 28)): 16.22
CDRS Score, Mean ([3]; 250 mg/day): -0.67
CDRS, Mean ([3]; 500 mg/day, V1 (baseline)): 16.33
CDRS, Mean ([3]; 500 mg/day, V3 (day 28)): 16.08
CDRS Score, Mean ([3]; 500 mg/day): -0.25

— patent US20230181614A1, “ADMINISTRATION OF CITICOLINE TO IMPROVE COGNITIVE PERFORMANCE, ATTENTIONAL PERFORMANCE, AND MOTOR FUNCTION” (KYOWA HAKKO BIO CO., LTD., priority 2014, published 2023)
